≈ marks a conversion by molar mass, not a printed value.
Experiments:
[1] = Cmax in mouse at 5 mg/kg, po; assay type: ADME, organism-based; parameters: dose 5 mg/kg, route oral; conditions: in vivo
[2] = Cmax in rat at 2 mg/kg, po; assay type: ADME, organism-based; parameters: dose 2 mg/kg, route oral; conditions: in vivo
[3] = Cmax in cynomolgus monkey at 2 mg/kg, po; assay type: ADME, organism-based, Macaca fascicularis; parameters: dose 2 mg/kg, route oral; conditions: in vivo
[4] = Cmax in dog at 2 mg/kg, po; assay type: ADME, organism-based, Canis lupus familiaris; parameters: dose 2 mg/kg, route oral; conditions: in vivo
[5] = Tmax in mouse at 5 mg/kg, po or 1 mg/kg, iv; assay type: ADME, organism-based; conditions: in vivo
[6] = Tmax in rat at 2 mg/kg, po or 0.5 mg/kg, iv; assay type: ADME, organism-based; conditions: in vivo
[7] = Tmax in cynomolgus monkey at 2 mg/kg, po or 0.5 mg/kg, iv; assay type: ADME, organism-based, Macaca fascicularis; conditions: in vivo
[8] = Tmax in dog at 2 mg/kg, po or 0.5 mg/kg, iv; assay type: ADME, organism-based, Canis lupus familiaris; conditions: in vivo
[9] = Clearance in mouse at 5 mg/kg, po or 1 mg/kg, iv; assay type: ADME, organism-based; conditions: in vivo
[10] = Clearance in rat at 2 mg/kg, po or 0.5 mg/kg, iv; assay type: ADME, organism-based; conditions: in vivo
[11] = Clearance in cynomolgus monkey at 2 mg/kg, po or 0.5 mg/kg, iv; assay type: ADME, organism-based, Macaca fascicularis; conditions: in vivo
[12] = Clearance in dog at 2 mg/kg, po or 0.5 mg/kg, iv; assay type: ADME, organism-based, Canis lupus familiaris; conditions: in vivo
[13] = Volume of distribution at steady state in mouse at 5 mg/kg, po or 1 mg/kg, iv; assay type: ADME, organism-based; conditions: in vivo, read-out: Vdss
[14] = Volume of distribution at steady state in rat at 2 mg/kg, po or 0.5 mg/kg, iv; assay type: ADME, organism-based; conditions: in vivo, read-out: Vdss
[15] = Volume of distribution at steady state in cynomolgus monkey at 2 mg/kg, po or 0.5 mg/kg, iv; assay type: ADME, organism-based, Macaca fascicularis; conditions: in vivo, read-out: Vdss
[16] = Volume of distribution at steady state in dog at 2 mg/kg, po or 0.5 mg/kg, iv; assay type: ADME, organism-based, Canis lupus familiaris; conditions: in vivo, read-out: Vdss
[17] = Half life in mouse at 1 mg/kg, iv; assay type: ADME, organism-based; conditions: in vivo
[18] = Half life in rat at 0.5 mg/kg, iv; assay type: ADME, organism-based; conditions: in vivo
[19] = Half life in cynomolgus monkey at 0.5 mg/kg, iv; assay type: ADME, organism-based, Macaca fascicularis; conditions: in vivo
[20] = Half life in dog at 0.5 mg/kg, iv; assay type: ADME, organism-based, Canis lupus familiaris; conditions: in vivo
[21] = Oral bioavailability in cynomolgus monkey at 2 mg/kg; assay type: ADME, organism-based, Macaca fascicularis; conditions: in vivo
[22] = Oral bioavailability in dog at 2 mg/kg; assay type: ADME, organism-based, Canis lupus familiaris; conditions: in vivo
[23] = Terminal plasma concentration in ob/ob mouse at 3 mg/kg, po administered 30 mins prior to testing by oral glucose tolerance test; assay type: ADME, organism-based; conditions: read-out: Cp(T)
[24] = Terminal plasma concentration in ob/ob mouse at 10 mg/kg, po administered 30 mins prior to testing by oral glucose tolerance test; assay type: ADME, organism-based; conditions: read-out: Cp(T)
[25] = Terminal plasma concentration in ob/ob mouse at 30 mg/kg, po administered 30 mins prior to testing by oral glucose tolerance test; assay type: ADME, organism-based; conditions: read-out: Cp(T)
[26] = in vivo; conditions: mouse, po, 5 mg/kg
[27] = physchem; conditions: SIF, pH 6.8

CNC(=O)Nc1cc(Oc2cncc(C)c2)c(-c2ccc(OCC(C)(C)O)nc2)cn1
Cmax [1]: 350 nM | Cmax [2]: 490 nM | Cmax [3]: 1150 nM | Cmax [4]: 3520 nM | Tmax [5]: 0.33 h | Tmax [6]: 0.83 h | Tmax [7]: 1.67 h | Tmax [8]: 1.33 h | clearance [9]: 6.17 mL/min/kg | clearance [10]: 27.3 mL/min/kg | clearance [11]: 10 mL/min/kg | clearance [12]: 4.17 mL/min/kg | Vd [13]: 0.59 L/kg | Vd [14]: 2.18 L/kg | Vd [15]: 2.29 L/kg | Vd [16]: 1.49 L/kg | half-life [17]: 2 h | half-life [18]: 1.4 h | half-life [19]: 6.7 h | half-life [20]: 6.5 h | bioavailability [21]: 70% | bioavailability [22]: 99% | concentration at 0.5 h [23]: 1200 nM | concentration at 0.5 h [24]: 3600 nM | concentration at 0.5 h [25]: 38000 nM | bioavailability [26]: 25% | solubility [27]: 46 µM (≈ 19.5 µg/mL)

CNC(=O)Nc1cc(Oc2cncc(C)c2)c(-c2ccc(OCCO)nc2)cn1
bioavailability [26]: 6% | solubility [27]: < 1 µM

CNC(=O)Nc1cc(Oc2cncc(C)c2)c(-c2ccc(OC[C@H](C)O)nc2)cn1
solubility [27]: 176 µM (≈ 72.1 µg/mL)

CNC(=O)Nc1cc(Oc2cncc(C)c2)c(-c2ccc(OC[C@@H](C)O)nc2)cn1
solubility [27]: 226 µM (≈ 92.5 µg/mL)
